From PubChem BioAssay AID2060890 (Molecular Pharmacology Branch, DTP, NCI, 2025)

Tested on: LG0703-F948-PDC complex spheroid viability
Test: Anticancer human tumor LG0703-F948-PDC patient-derived lung adenocarcinoma cell line growth inhibition [RAS]
Conditions: for viability, T/C: stronger effect = lower value
How it was run: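 Agents were tested in combination matrices in half-log decrements from a top concentration at or near clinical Cmax (10 microM if undetermined). Targets were multi-cell spheroids of tumour lines plus HUVEC and MSC stromal cells.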

[1] = curve of first compound, second compound 0.000949 µM
[2] = curve of first compound, second compound 0.003 µM
[3] = curve of first compound, second compound 0.00949 µM
[4] = curve of first compound, second compound 0.03 µM
[5] = curve of first compound, second compound 0.0949 µM
[6] = curve of first compound, second compound 0.3 µM
[7] = second compound 0.000949 µM, first compound 0.00316 µM
[8] = second compound 0.000949 µM, first compound 0.01 µM
[9] = second compound 0.000949 µM, first compound 0.0316 µM
[10] = second compound 0.000949 µM, first compound 0.1 µM
[11] = second compound 0.003 µM, first compound 0.00316 µM
[12] = second compound 0.003 µM, first compound 0.01 µM
[13] = second compound 0.003 µM, first compound 0.0316 µM
[14] = second compound 0.003 µM, first compound 0.1 µM
[15] = second compound 0.00949 µM, first compound 0.00316 µM
[16] = second compound 0.00949 µM, first compound 0.01 µM
[17] = second compound 0.00949 µM, first compound 0.0316 µM
[18] = second compound 0.00949 µM, first compound 0.1 µM
[19] = second compound 0.03 µM, first compound 0.00316 µM
[20] = second compound 0.03 µM, first compound 0.01 µM
[21] = second compound 0.03 µM, first compound 0.0316 µM
[22] = second compound 0.03 µM, first compound 0.1 µM
[23] = second compound 0.0949 µM, first compound 0.00316 µM
[24] = second compound 0.0949 µM, first compound 0.01 µM
[25] = second compound 0.0949 µM, first compound 0.0316 µM
[26] = second compound 0.0949 µM, first compound 0.1 µM
[27] = second compound 0.3 µM, first compound 0.00316 µM
[28] = second compound 0.3 µM, first compound 0.01 µM
[29] = second compound 0.3 µM, first compound 0.0316 µM
[30] = second compound 0.3 µM, first compound 0.1 µM
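Also: spheroids exposed to agents for 7 days.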
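For viability, T/C in this document: 100% = DMSO vehicle wells.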

SMILES: Nc1ccn(C2OC(CO)C(O)C2(F)F)c(=O)n1 (stereo unspecified) + CCn1c(-c2cc(N3CCN(C)CC3)cnc2C(C)OC)c2c3cc(ccc31)-c1csc(n1)CC(NC(=O)C1CC1C)C(=O)N1CCCC(N1)C(=O)OCC(C)(C)C2
- IC50 [1]: 6.69 nM
- IC50 [2]: < 3.16 nM
- IC50 [3]: < 3.16 nM
- IC50 [4]: < 3.16 nM
- IC50 [5]: < 3.16 nM
- IC50 [6]: < 3.16 nM
- viability, T/C [7]: 65.9%
- viability, T/C [8]: 42.5%
- viability, T/C [9]: 33.1%
- viability, T/C [10]: 40.5%
- viability, T/C (second compound 0.000949 µM, first compound 0.316 µM): 39.5%
- viability, T/C (second compound 0.000949 µM, first compound 1 µM): 36.2%
- viability, T/C [11]: 46.4%
- viability, T/C [12]: 31.9%
- viability, T/C [13]: 34.1%
- viability, T/C [14]: 28.7%
- viability, T/C (second compound 0.003 µM, first compound 0.316 µM): 29.6%
- viability, T/C (second compound 0.003 µM, first compound 1 µM): 32.8%
- viability, T/C [15]: 22.8%
- viability, T/C [16]: 18.3%
- viability, T/C [17]: 17.4%
- viability, T/C [18]: 13.7%
- viability, T/C (second compound 0.00949 µM, first compound 0.316 µM): 19.2%
- viability, T/C (second compound 0.00949 µM, first compound 1 µM): 18.3%
- viability, T/C [19]: 10.1%
- viability, T/C [20]: 11.4%
- viability, T/C [21]: 15.6%
- viability, T/C [22]: 14.2%
- viability, T/C (second compound 0.03 µM, first compound 0.316 µM): 14.9%
- viability, T/C (second compound 0.03 µM, first compound 1 µM): 10.5%
- viability, T/C [23]: 12.6%
- viability, T/C [24]: 8.4%
- viability, T/C [25]: 9.27%
- viability, T/C [26]: 9.86%
- viability, T/C (second compound 0.0949 µM, first compound 0.316 µM): 8.62%
- viability, T/C (second compound 0.0949 µM, first compound 1 µM): 8.16%
- viability, T/C [27]: 10.5%
- viability, T/C [28]: 7.77%
- viability, T/C [29]: 11%
- viability, T/C [30]: 6.54%
- viability, T/C (second compound 0.3 µM, first compound 0.316 µM): 6.46%
- viability, T/C (second compound 0.3 µM, first compound 1 µM): 5.98%

SMILES: CC(C)n1nc(-c2ccc3oc(N)nc3c2)c2c(N)ncnc21 + CCn1c(-c2cc(N3CCN(C)CC3)cnc2C(C)OC)c2c3cc(ccc31)-c1csc(n1)CC(NC(=O)C1CC1C)C(=O)N1CCCC(N1)C(=O)OCC(C)(C)C2
- IC50 [1]: 1.53 nM
- IC50 [2]: 0.429 nM
- IC50 [3]: < 0.316 nM
- IC50 [4]: < 0.316 nM
- IC50 [5]: < 0.316 nM
- IC50 [6]: < 0.316 nM
- viability, T/C (second compound 0.000949 µM, first compound 0.000316 µM): 66.8%
- viability, T/C (second compound 0.000949 µM, first compound 0.001 µM): 56.5%
- viability, T/C [7]: 38.5%
- viability, T/C [8]: 30.5%
- viability, T/C [9]: 12.7%
- viability, T/C [10]: 5.51%
- viability, T/C (second compound 0.003 µM, first compound 0.000316 µM): 55.5%
- viability, T/C (second compound 0.003 µM, first compound 0.001 µM): 34.8%
- viability, T/C [11]: 29.7%
- viability, T/C [12]: 13.1%
- viability, T/C [13]: 8.23%
- viability, T/C [14]: 3.1%
- viability, T/C (second compound 0.00949 µM, first compound 0.000316 µM): 31.1%
- viability, T/C (second compound 0.00949 µM, first compound 0.001 µM): 20.7%
- viability, T/C [15]: 12.6%
- viability, T/C [16]: 6.99%
- viability, T/C [17]: 4.36%
- viability, T/C [18]: 2.06%
- viability, T/C (second compound 0.03 µM, first compound 0.000316 µM): 12.7%
- viability, T/C (second compound 0.03 µM, first compound 0.001 µM): 13.1%
- viability, T/C [19]: 6.11%
- viability, T/C [20]: 5.4%
- viability, T/C [21]: 2.59%
- viability, T/C [22]: 1.58%
- viability, T/C (second compound 0.0949 µM, first compound 0.000316 µM): 12.9%
- viability, T/C (second compound 0.0949 µM, first compound 0.001 µM): 8.35%
- viability, T/C [23]: 6.05%
- viability, T/C [24]: 3.05%
- viability, T/C [25]: 1.82%
- viability, T/C [26]: 1.05%
- viability, T/C (second compound 0.3 µM, first compound 0.000316 µM): 10.7%
- viability, T/C (second compound 0.3 µM, first compound 0.001 µM): 7.72%
- viability, T/C [27]: 4.76%
- viability, T/C [28]: 3.02%
- viability, T/C [29]: 1.64%
- viability, T/C [30]: 0.76%

SMILES: CC(C)NCC(C(=O)N1CCN(c2ncnc3c2C(C)CC3O)CC1)c1ccc(Cl)cc1 (stereo unspecified) + C=CC(=O)N1CCN(c2nc(OCC3CCCN3C)nc3c(F)c(-c4nc(N)cc(C)c4C(F)(F)F)c(Cl)cc23)C(C)C1
- IC50 (curve of first compound, second compound 0.00316 µM): 577 nM
- IC50 (curve of first compound, second compound 0.01 µM): 656 nM
- IC50 (curve of first compound, second compound 0.0316 µM): 625 nM
- IC50 (curve of first compound, second compound 0.1 µM): 650 nM
- IC50 (curve of first compound, second compound 0.316 µM): 640 nM
- IC50 (curve of first compound, second compound 1 µM): 696 nM
- viability, T/C (second compound 0.00316 µM, first compound 0.0316 µM): 97%
- viability, T/C (second compound 0.00316 µM, first compound 0.1 µM): 77.6%
- viability, T/C (second compound 0.00316 µM, first compound 0.316 µM): 56.9%
- viability, T/C (second compound 0.00316 µM, first compound 1 µM): 44.7%
- viability, T/C (second compound 0.00316 µM, first compound 3.16 µM): 28.1%
- viability, T/C (second compound 0.00316 µM, first compound 10 µM): 21.6%
- viability, T/C (second compound 0.01 µM, first compound 0.0316 µM): 96.4%
- viability, T/C (second compound 0.01 µM, first compound 0.1 µM): 78.8%
- viability, T/C (second compound 0.01 µM, first compound 0.316 µM): 56.2%
- viability, T/C (second compound 0.01 µM, first compound 1 µM): 46.5%
- viability, T/C (second compound 0.01 µM, first compound 3.16 µM): 31.6%
- viability, T/C (second compound 0.01 µM, first compound 10 µM): 20.8%
- viability, T/C (second compound 0.0316 µM, first compound 0.0316 µM): 100%
- viability, T/C (second compound 0.0316 µM, first compound 0.1 µM): 79.9%
- viability, T/C (second compound 0.0316 µM, first compound 0.316 µM): 61.9%
- viability, T/C (second compound 0.0316 µM, first compound 1 µM): 40.4%
- viability, T/C (second compound 0.0316 µM, first compound 3.16 µM): 33.3%
- viability, T/C (second compound 0.0316 µM, first compound 10 µM): 23.3%
- viability, T/C (second compound 0.1 µM, first compound 0.0316 µM): 87.3%
- viability, T/C (second compound 0.1 µM, first compound 0.1 µM): 74.6%
- viability, T/C (second compound 0.1 µM, first compound 0.316 µM): 62%
- viability, T/C (second compound 0.1 µM, first compound 1 µM): 42%
- viability, T/C (second compound 0.1 µM, first compound 3.16 µM): 31.6%
- viability, T/C (second compound 0.1 µM, first compound 10 µM): 21.2%
- viability, T/C (second compound 0.316 µM, first compound 0.0316 µM): 103%
- viability, T/C (second compound 0.316 µM, first compound 0.1 µM): 82%
- viability, T/C (second compound 0.316 µM, first compound 0.316 µM): 58.5%
- viability, T/C (second compound 0.316 µM, first compound 1 µM): 44.2%
- viability, T/C (second compound 0.316 µM, first compound 3.16 µM): 29.8%
- viability, T/C (second compound 0.316 µM, first compound 10 µM): 18.5%
- viability, T/C (second compound 1 µM, first compound 0.0316 µM): 104%
- viability, T/C (second compound 1 µM, first compound 0.1 µM): 97%
- viability, T/C (second compound 1 µM, first compound 0.316 µM): 61.4%
- viability, T/C (second compound 1 µM, first compound 1 µM): 44.9%
- viability, T/C (second compound 1 µM, first compound 3.16 µM): 25.8%
- viability, T/C (second compound 1 µM, first compound 10 µM): 15.1%

SMILES: C=CC(=O)N1CCN(c2nc(OCC3CCCN3C)nc3c(F)c(-c4nc(N)cc(C)c4C(F)(F)F)c(Cl)cc23)C(C)C1 (stereo unspecified)
- viability, T/C (compound 0.01 µM): 102% [middle of 11 runs]
- viability, T/C (compound 0.1 µM): 106% [middle of 11 runs]
- viability, T/C (compound 1 µM): 112% [middle of 11 runs]
- IC50 (compound alone, run of 09/09/2024): > 1000 nM
- IC50 (curve of compound): > 1000 nM
